The values that follow come from patent publication US12419888B2, “Methods of treating elevated plasma cholesterol” (INSTITUT DE CARDIOLOGIE DE MONTREAL, priority 2020, dated 2025).

Structures are written as SMILES.

Data set [1] deals with Biotinylated PCSK9 (Homo sapiens (Human), UniProt Q8NBP7). The data set can be described thus: Binding affinity of SHIM compounds to PCSK9 by surface plasmon resonance spectroscopy (Biacore T200). The conditions noted are these: SPR, range tested 0.5-10 uM, 1:1 Langmuir model, NB = no binding detected in the tested range. On the procedure: Studies of SHIM compounds—PCSK9 interactions. […] Biotinylated PCSK9 (ACRO Biosystems) at 1 μg/mL has been captured on a chip on which streptavidin has been immobilized with amine-directed chemistry according to the manufacturer's instructions (6000 RU) to a density of 6000 RU in PBS-P ([…], 0.005% Tween 20, pH7.4) buffer with 1% DMSO. SHIMs at 10, 3.3, 1.1, 0.33 and 0.11 uM were injected at 30 uL/min. […] Double reference method of analysis was used with the reference channel containing a reference biotinylated protein captured at 6000 RU.

In data set [2] the test system is LDLR protein levels in HepG2 cells. Description: Western blot analysis of relative LDLR protein levels in HepG2 cells after treatment. It counts as cell-based, human. As to conditions: HepG2 cells incubated overnight with compound, 0.2 μM to 20 μM. Here is the method: Cell culture, treatments and cell viability assay. For phenotypic screening of PCSK9 modulators and/or LDLR small molecule inducers, human HepG2 cells were incubated overnight in conditioned media containing chemical compounds resuspended in DMSO at concentration ranging from 0.2 μM to 20 μM. […] Following incubation, media have been replaced and cells incubated for 4 h with 100 μL of phenol red-free DMEM containing 0.5 mg/mL of MTT (3-[4,5-dimethylthiazol-2-yl]-2,5-diphenyltetrazolium bromide; thiazolyl blue; catalog no. M5655, Sigma-Aldrich), following manufacturer's instructions.
Western Blot Analysis, Immunocytochemistry and LDLR Activity Assay. Following incubation, cells were washed three times in phosphate-buffered saline (PBS) and lysed in radioimmune precipitation assay buffer (50 mM Tris/HCl, pH 8.0, 1% (v/v) Nonidet P-40, 0.5% sodium deoxycholate, 150 mM NaCl, and 0.1% (v/v) SDS) supplemented with a complete protease inhibitor mixture (catalog no. 11 697 498 001, Roche Applied Science). Proteins were separated by SDS polyacrylamide gel electrophoresis, blotted on nitrocellulose membranes (Bio-Rad), blocked incubated with indicated antibodies as described (Poirier S, et al., Cell Rep, 2015). For immunocytochemistry analysis, cells were permeabilized or not with 0.1% Triton X-100/PBS for 10 min, and incubated with 150 mM glycine, blocked and incubated with indicated primary and secondary antibodies. Immunofluorescence analyses were performed with an Olympus FluoView FV10i confocal microscope (Poirier et al., Cell Rep. 2015; 13(10):2064-2071). For LDLR activity assay, HepG2 cells were incubated overnight without or with a given compound in the presence of 5 μg/ml fluorescent labelled DiI-LDL (Alfa Aesar, Cat. #J65330) and co-stained for LDLR if applicable, as described (Poirier et al., J Biol Chem. 2009; 284(42):28856-28864). Immunofluorescence analyses were performed with an Olympus FluoView FV10i confocal microscope.

Data set [3] concerns hypercholesterolemic C57BL/6 Pcsk9 KO mice. The data set can be described thus: Efficacy and safety in hypercholesterolemic C57BL/6 Pcsk9 KO mice on Western diet, oral gavage. The format is in vivo. As to conditions: 40 mg/kg/day oral gavage for 10 days.
Text: Animal studies. All animal studies were approved by the Montreal Heart Institute (MHI) Animal Care and Ethical committee. For in vivo proof-of-concept animal studies, wild-type C57BL/6 or Pcsk9 knockout male mice were fed on Western diet containing 48.5% w/w carbohydrate, 21.2% w/w fat, 17.3% w/w protein and 0.2% w/w cholesterol (catalog no. TD.88137, Envigo) for 14 days. Chemical compounds were mixed in DMSO/propylene glycol/water; 1:7:2 (v/v) and administered by oral gavage at 0 (vehicle) or 40 mg/kg/day for 10 days in mice on Western diet. Plasma lipoprotein cholesterol profiles were obtained from 100 μL of pooled plasma injected on a Superose 6 10/300 GL (catalog no. 17-5172-01, GE Life Sciences) and eluted with PBS at a flow rate of 0.1 mL per min at 4° C. mounted on a AKTA explorer system (GE Healthcare). Serum aspartate aminotransferase (AST), alanine transaminase (ALT), insulin, glucose and complete hematology tests were measured by the Montreal Heart Institute biochemical clinical chemistry platform according to manufacturer's recommendations.

Chain of Biotinylated PCSK9 (Q8NBP7 153-692): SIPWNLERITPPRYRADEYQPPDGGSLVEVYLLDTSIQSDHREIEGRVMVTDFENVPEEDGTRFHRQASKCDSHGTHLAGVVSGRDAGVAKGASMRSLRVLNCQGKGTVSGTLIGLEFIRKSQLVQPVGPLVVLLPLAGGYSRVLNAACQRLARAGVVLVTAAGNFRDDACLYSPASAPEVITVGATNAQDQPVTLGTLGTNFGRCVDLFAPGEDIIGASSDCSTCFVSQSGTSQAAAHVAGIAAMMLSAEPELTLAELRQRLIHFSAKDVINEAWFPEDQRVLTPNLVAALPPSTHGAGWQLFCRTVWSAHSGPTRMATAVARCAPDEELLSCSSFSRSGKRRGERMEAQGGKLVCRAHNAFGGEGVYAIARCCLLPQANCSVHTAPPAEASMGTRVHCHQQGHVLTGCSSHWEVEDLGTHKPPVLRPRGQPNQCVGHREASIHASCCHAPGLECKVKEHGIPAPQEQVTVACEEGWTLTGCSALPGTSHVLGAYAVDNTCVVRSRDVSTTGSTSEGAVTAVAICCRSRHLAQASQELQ

In the case of `O=C(c1csc(-c2cccs2)n1)N1CCc2c([nH]c3ccccc23)C1c1ccccn1` (stereo not drawn) [Compound 26, 1-(2-pyridinyl)-2-{[2-(2-thienyl)-1,3-thiazol-4-yl]carbonyl}-2,3,4,9-tetrahydro-1H-beta-carboline], the Kd in data set [1] (read-out: KD - equilibrium dissociation constant) was 11 µM. Besides, the kon in data set [1] (read-out: ka - association rate constant) is 104000 M⁻¹ s⁻¹. For the same compound, the koff in data set [1] (read-out: kd - dissociation rate constant) was 1.14 s⁻¹. In addition, in data set [2], the “LDLR Fold (relative LDLR protein levels)” value was determined as 1.9 ± 0.5 Fold. Moreover, in data set [3], the ALT is reported as 24 U/L, the AST is 67 U/L, the Glucose was found to be 16.3 mmol/L and the “ΔBody Weight (D 10 − D 0)” value is reported as 99%. For the same compound, in data set [3] (Western diet), the HDL-C was 3.00 mmol/L, the “LDL-C (measured)” value is listed as 0.23 mmol/L, the TC came to 3.03 mmol/L and the TG came out at 0.90 mmol/L. In data set [3] (Western diet), this compound registered a nonHDL-C of 0.04 mmol/L. The “LDL-C (pooled plasma) (FPLC AUC) (Fold Change %)” value in data set [3] (pooled plasma FPLC) was −61%.
